Test results taken from patent US5618813A, “Benzo[5.6]pyrano[2.3.4-ij]quinolizine and benzo[5.6]thiopyrano[2.3.4-ij]quinolizine derivatives as antibacterial and antineoplastic agents” (Abbott Laboratories, priority 1995, dated 1997).
Structures can show the parent of a compound that is named as a salt.

Key:
Experiment in all cases: In vitro antibacterial activity (MIC, agar dilution)
Type in all cases: cell-based
P. aeruginosa 2862 = conditions: Pseudomonas aeruginosa; P. aeruginosa 2862; agar dilution; read-out: MIC
Description: (§1) Each plate was inoculated with 1:100 (or 1:10 for slow-growing strains, primarily Micrococcus and Streptococcus) dilutions of up to 32 different microorganisms, using a Steers replicator block calibrated to deliver approximately 10^4 colony forming units (CFUs). The inoculated plates were incubated at from about 35° C. to about 37° C. for approximately 20-24 hours. In o addition, a control plate using BHI agar containing no test compound was prepared and incubated at the beginning and at the end of each test. The quinolone antibacterial ciprofloxacin was used as a control ("Cntl").
(§2) The MIC was defined as the lowest concentration of test compound yielding no growth (a slight haze or sparsely isolated colonies at the inoculum spot) as compared to the growth control containing no test compound.

Strep. bovis A5169 = conditions: Streptococcus equinus; Strep. bovis A5169; agar dilution; read-out: MIC
Description: as §1, §2

[1] = system: Entero. faecium ATCC 8043; conditions: Enterococcus faecium, ATCC8043; Entero. faecium ATCC 8043; agar dilution; read-out: MIC
Description: as §1, §2

[2] = system: Providencia stuartii CMX 640; conditions: CMX640
Description: as §1, §2

[3] = system: Enter. aerogenes ATCC 13048; conditions: Klebsiella aerogenes, ATCC13048
Description: as §1, §2

Staph. aureus A5177 = conditions: Staphylococcus aureus
Description: as §1, §2

[4] = system: Strep. pyogenes 930 CONST; conditions: Streptococcus pyogenes
Description: as §1, §2

[5] = system: Strep. agalactiae CMX 508; conditions: Streptococcus agalactiae, CMX508
Description: as §1, §2

P. aeruginosa A5007 = conditions: Pseudomonas aeruginosa; P. aeruginosa A5007; agar dilution; read-out: MIC
Description: as §1, §2

Escherichia coli Juhl = system: Escherichia coli Juhl
Description: as §1, §2

P. aeruginosa K799/WT = conditions: Pseudomonas aeruginosa; P. aeruginosa K799/WT; agar dilution; read-out: MIC
Description: as §1, §2

[6] = system: Acinetobacter calcoaceticus CMX 669; conditions: CMX669; Acinetobacter calcoaceticus CMX 669; agar dilution; read-out: MIC
Description: as §1, §2

P. aeruginosa K799/61 = conditions: Pseudomonas aeruginosa
Description: as §1, §2

Staph. aureus CMX 553 = conditions: Staphylococcus aureus, CMX553
Description: as §1, §2

Myco. smegmatis ATCC 114 = conditions: Mycolicibacterium smegmatis, ATCC114
Description: as §1, §2

[7] = system: Nocardia asteroides ATCC 9970; conditions: ATCC9970; Nocardia asteroides ATCC 9970; agar dilution; read-out: MIC
Description: as §1, §2

M. luteus ATCC 9341 = conditions: Micrococcus luteus, ATCC9341; M. luteus ATCC 9341; agar dilution; read-out: MIC
Description: as §1, §2

Candida albicans CCH 442 = conditions: CCH442; Candida albicans CCH 442; agar dilution; read-out: MIC
Description: as §1, §2

E. coli SS = conditions: Escherichia coli; E. coli SS; agar dilution; read-out: MIC
Description: as §1, §2

E. coli DC-2 = conditions: Escherichia coli, DC2; E. coli DC-2; agar dilution; read-out: MIC
Description: as §1, §2

E. coli H560 = conditions: Escherichia coli; E. coli H560; agar dilution; read-out: MIC
Description: as §1, §2

Staph. epidermidis 3519 = conditions: Staphylococcus epidermidis
Description: as §1, §2

P. aeruginosa BMH 10 = conditions: Pseudomonas aeruginosa, BMH10; P. aeruginosa BMH 10; agar dilution; read-out: MIC
Description: as §1, §2

Strep. pyogenes EES61 = conditions: Streptococcus pyogenes
Description: as §1, §2

[8] = system: Klebsiella pneumoniae ATCC 8045; conditions: ATCC8045; Klebsiella pneumoniae ATCC 8045; agar dilution; read-out: MIC
Description: as §1, §2

Pseudomonas cepacia 296I = conditions: Burkholderia cepacia
Description: as §1, §2

[9] = system: Staph. aureus 1775 Cipro.R.; conditions: Staphylococcus aureus
Description: as §1, §2

M. luteus ATCC 4698 = conditions: Micrococcus luteus, ATCC4698; M. luteus ATCC 4698; agar dilution; read-out: MIC
Description: as §1, §2

E. coli KNK 437 = conditions: Escherichia coli, KNK437; E. coli KNK 437; agar dilution; read-out: MIC
Description: as §1, §2

Staph. aureus 5278 = conditions: Staphylococcus aureus
Description: as §1, §2

Staph. aureus NCTC10649 = conditions: Staphylococcus aureus
Description: as §1, §2

Staph. aureus 642A = conditions: Staphylococcus aureus
Description: as §1, §2

[10] = system: Strep. pyogenes 2458 INDUC; conditions: Streptococcus pyogenes
Description: as §1, §2

P. aeruginosa 5263 = conditions: Pseudomonas aeruginosa; P. aeruginosa 5263; agar dilution; read-out: MIC
Description: as §1, §2

Staph. aureus ATCC 6538P = conditions: Staphylococcus aureus, ATCC6538P
Description: as §1, §2

## NC1CCN(c2c(F)cn3c(=O)c(C(=O)O)cc4c3c2Oc2ccccc2-4)C1 (centres unmarked) [Example 2, 1-(3-amino-pyrrolidinyl)-2-fluoro-5H-5-oxo-benzo[5,6]pyrano[2.3.4-ij]quinolizine-6-carboxylic acid hydrochloride]
P. aeruginosa 2862
  MIC: > 100 µg/mL
Strep. bovis A5169
  MIC: 3.1 µg/mL
[1]
  MIC: 6.2 µg/mL
[2]
  MIC: > 100 µg/mL
[3]
  MIC: 6.2 µg/mL
Staph. aureus A5177
  MIC: 6.2 µg/mL
[4]
  MIC: 3.1 µg/mL
[5]
  MIC: 3.1 µg/mL
P. aeruginosa A5007
  MIC: 100 µg/mL
Escherichia coli Juhl
  MIC: 3.1 µg/mL
P. aeruginosa K799/WT
  MIC: 50 µg/mL
[6]
  MIC: 6.2 µg/mL
P. aeruginosa K799/61
  MIC: 6.2 µg/mL
Staph. aureus CMX 553
  MIC: 6.2 µg/mL
Myco. smegmatis ATCC 114
  MIC: 3.1 µg/mL
[7]
  MIC: 3.1 µg/mL
M. luteus ATCC 9341
  MIC: 3.1 µg/mL
Candida albicans CCH 442
  MIC: > 100 µg/mL
E. coli SS
  MIC: 0.78 µg/mL
E. coli DC-2
  MIC: 12.5 µg/mL
E. coli H560
  MIC: 3.1 µg/mL
Staph. epidermidis 3519
  MIC: 3.1 µg/mL
P. aeruginosa BMH 10
  MIC: 25 µg/mL
Strep. pyogenes EES61
  MIC: 3.1 µg/mL
[8]
  MIC: 1.56 µg/mL
Pseudomonas cepacia 296I
  MIC: > 100 µg/mL
[9]
  MIC: 6.2 µg/mL
M. luteus ATCC 4698
  MIC: 3.1 µg/mL
E. coli KNK 437
  MIC: 3.1 µg/mL
Staph. aureus 5278
  MIC: 6.2 µg/mL
Staph. aureus NCTC10649
  MIC: 3.1 µg/mL
Staph. aureus 642A
  MIC: 6.2 µg/mL
[10]
  MIC: 3.1 µg/mL
P. aeruginosa 5263
  MIC: > 100 µg/mL
Staph. aureus ATCC 6538P
  MIC: 6.2 µg/mL
